Experimental findings from patent US20120165403A1, “METHODS OF INHIBITING THE ACTIVITY OF HSP90 AND/OR ARYL HYDROCARBON RECEPTOR” (UNIVERSITY OF ROCHESTER, priority 2004, published 2012) are described below.

The test system of the test is mouse AhR. Description: Competitive binding by velocity sedimentation on sucrose density gradients. As to the method: Mouse hepatoma cells, Hepa1c1c7 (Hepa), and BP^rCl cells were maintained in modified Eagle's medium (Sigma) supplemented with 10% heat-inactivated fetal bovine serum, sodium pyruvate, L-glutamine, sodium bicarbonate, and Gentamicin (MEM+), at 37° C. in a humid atmosphere with 5% CO2. BP^rCl cells are a derivative of Hepa1c1c7 cells that lack ARNT protein expression and function (Probst et al., Mol. Pharmacol. 44:511-518 (1993), which is hereby incorporated by reference in its entirety). Upon reaching 90% confluency, cells were harvested and homogenized in HEDG buffer (25 mM HEPES, 1.5 mM Na2EDTA, 1 mM dithiothreitol, 10% (v/v) glycerol, pH 7.6) containing protease inhibitors (Roche Applied Science complete mini cocktail tablet, Indianapolis, Ind.). Both Hepa and BP^rC1 cytosols were prepared by centrifugation of the homogenate at 100,000 g for 45 min.
Competitive binding of EGCG was analyzed by velocity sedimentation on sucrose gradients in a vertical tube rotor (Tsui et al., Can. J. Physiol. Pharmacol 59:927-931 (1981); Jensen et al., Toxicol. Sci. 64:41-56 (2001), which are hereby incorporated by reference in their entirety). Hepa cytosol (100 μl of 2.5 mg/ml) or BP^rCl cytosol was incubated for two hours at room temperature with either 3 nM ^3H-TCDD, 0.5 nM ^3H-TCDD, or 5 nM ^3H-BNF, in the presence of DMSO, 150-fold excess TCDF, 1 μM 3M4NF, or EGCG. Cytosols were washed with charcoal-dextran (1 mg charcoal/mg protein) in HEDG, and applied to a 10-30% (w/v) sucrose gradient in Beckman Quick-Seal centrifuge tubes (Beckman, Palo Alto, Calif.). [Methyl-^14C]-BSA was used as an internal sedimentation marker. The gradients were centrifuged for 2 h at 372,000×g in a Beckman VTI-80 rotor. Fractions were collected from the top at a rate of 1 ml/min, 0.2 ml/fraction. For competitive binding assays, fractions were assayed for radioactivity with ScintiVerse (Fisher Scientific, Fair Lawn, N.J.). […] For AhR and hsp90 density analysis, protein contained within an aliquot (200 of each fraction was separated by SDS-PAGE (7.5% acrylamide resolving gel) and transferred to PVDF membranes. Membranes were probed with antibodies recognizing AhR (Biomol) or hsp90 (Stressgen, Victoria, BC Canada). A crude estimate of the sedimentation coefficient for the EGCG shifted AhR complex was calculated by the method of Martin and Ames (Martin et al., J. Biol. Chem. 236:1372-1379 (1961), which is hereby incorporated by reference in its entirety) relative to the ^14C-BSA (4.4S) standard.

On to `O=C(O[C@@H]1Cc2c(O)cc(O)cc2O[C@@H]1c1cc(O)c(O)c(O)c1)c1cc(O)c(O)c(O)c1` [EGCG, epigallocatechin gallate], for which the “displacement of TCDD from the AhR ligand-binding site” value (ARNT deficient BPrC1 cytosol, lower concentrations of 3H-TCDD) is “incapable of displacing TCDD”. Besides, the “inhibition of TCDD binding after pretreatment” value (BPrC1 cytosol pretreated 30 minutes with EGCG) is “failed to inhibit TCDD binding”. In addition, under “Hepa cytosol, 3 nM 3H-TCDD, 2 h, room temperature”, the “competition with 3H-TCDD for specific binding to the AhR (9S peak)” value is given as “failed to attenuate the ^3H-TCDD 9S signal”. Further, the “competition with 3H-BNF for binding to the AhR” value (Hepa cytosol, 5 nM 3H-BNF, 2 h, room temperature) is on record as “failed to inhibit BNF binding”.
